In patent publication US20200239530A1, “COMPOUNDS AND METHODS OF MODULATING PROTEIN DEGRADATION” (Vividion Therapeutics, Inc., priority 2017, published 2020):

What was measured:
Experiment in all cases: Cysteine liganding, probe competition
Assay type in all cases: binding
[1] = molecular target: T1, PIAS4 E3 SUMO-protein ligase PIAS4 (Homo sapiens, UniProt Q8N2W9); settings: for Liganded: PIAS4 Res# 326, uniprot Q8N2W9
T1 construct: Cells were resuspended in cold PBS on ice and sonicated with a probe sonicator to achieve lysis; endogenous in cells
T1 sequence (Q8N2W9 1-510): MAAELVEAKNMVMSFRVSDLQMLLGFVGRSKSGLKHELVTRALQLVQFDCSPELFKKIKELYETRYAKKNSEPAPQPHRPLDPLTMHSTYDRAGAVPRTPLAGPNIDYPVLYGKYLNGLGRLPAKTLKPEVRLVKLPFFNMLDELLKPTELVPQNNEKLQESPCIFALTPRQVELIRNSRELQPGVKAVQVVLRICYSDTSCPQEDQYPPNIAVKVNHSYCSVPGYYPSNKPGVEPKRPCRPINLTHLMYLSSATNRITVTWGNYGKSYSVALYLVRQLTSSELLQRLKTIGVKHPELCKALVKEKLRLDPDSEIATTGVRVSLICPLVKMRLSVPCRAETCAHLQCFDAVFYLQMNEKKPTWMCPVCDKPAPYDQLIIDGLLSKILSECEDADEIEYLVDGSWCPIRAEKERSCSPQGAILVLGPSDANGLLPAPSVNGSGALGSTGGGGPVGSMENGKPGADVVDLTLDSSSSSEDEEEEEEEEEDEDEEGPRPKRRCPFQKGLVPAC
In short: (§1)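 Steps: sonicate cells in cold PBS; treat 5 mg/ml lysate with compound (25° C, 1 hr); add desthiobiotin iodoacetamide probe from a 10 mM stock (25° C, 1 hr); precipitate, reduce, alkylate, digest with trypsin; capture labelled peptides on streptavidin for analysis.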

[2] = molecular target: T2, RNF7 RING-box protein 2 (Homo sapiens, UniProt Q9UBF6)
T2 construct: Cells were resuspended in cold PBS on ice and sonicated with a probe sonicator to achieve lysis; endogenous in cells
T2 sequence (Q9UBF6 1-113): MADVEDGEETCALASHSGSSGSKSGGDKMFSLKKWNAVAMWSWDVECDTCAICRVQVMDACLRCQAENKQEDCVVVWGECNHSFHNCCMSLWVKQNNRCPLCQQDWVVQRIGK
In short: as §1

[3] = molecular target: T3, HADHB Trifunctional enzyme subunit beta, mitochondrial (Homo sapiens, UniProt P55084)
T3 construct: Cells were resuspended in cold PBS on ice and sonicated with a probe sonicator to achieve lysis; endogenous in cells
In short: as §1

[4] = molecular target: T4, PDCD11 Protein RRP5 homolog (Homo sapiens, UniProt Q14690)
T4 construct: Cells were resuspended in cold PBS on ice and sonicated with a probe sonicator to achieve lysis; endogenous in cells
In short: as §1

T4 sequence (Q14690 whole entry): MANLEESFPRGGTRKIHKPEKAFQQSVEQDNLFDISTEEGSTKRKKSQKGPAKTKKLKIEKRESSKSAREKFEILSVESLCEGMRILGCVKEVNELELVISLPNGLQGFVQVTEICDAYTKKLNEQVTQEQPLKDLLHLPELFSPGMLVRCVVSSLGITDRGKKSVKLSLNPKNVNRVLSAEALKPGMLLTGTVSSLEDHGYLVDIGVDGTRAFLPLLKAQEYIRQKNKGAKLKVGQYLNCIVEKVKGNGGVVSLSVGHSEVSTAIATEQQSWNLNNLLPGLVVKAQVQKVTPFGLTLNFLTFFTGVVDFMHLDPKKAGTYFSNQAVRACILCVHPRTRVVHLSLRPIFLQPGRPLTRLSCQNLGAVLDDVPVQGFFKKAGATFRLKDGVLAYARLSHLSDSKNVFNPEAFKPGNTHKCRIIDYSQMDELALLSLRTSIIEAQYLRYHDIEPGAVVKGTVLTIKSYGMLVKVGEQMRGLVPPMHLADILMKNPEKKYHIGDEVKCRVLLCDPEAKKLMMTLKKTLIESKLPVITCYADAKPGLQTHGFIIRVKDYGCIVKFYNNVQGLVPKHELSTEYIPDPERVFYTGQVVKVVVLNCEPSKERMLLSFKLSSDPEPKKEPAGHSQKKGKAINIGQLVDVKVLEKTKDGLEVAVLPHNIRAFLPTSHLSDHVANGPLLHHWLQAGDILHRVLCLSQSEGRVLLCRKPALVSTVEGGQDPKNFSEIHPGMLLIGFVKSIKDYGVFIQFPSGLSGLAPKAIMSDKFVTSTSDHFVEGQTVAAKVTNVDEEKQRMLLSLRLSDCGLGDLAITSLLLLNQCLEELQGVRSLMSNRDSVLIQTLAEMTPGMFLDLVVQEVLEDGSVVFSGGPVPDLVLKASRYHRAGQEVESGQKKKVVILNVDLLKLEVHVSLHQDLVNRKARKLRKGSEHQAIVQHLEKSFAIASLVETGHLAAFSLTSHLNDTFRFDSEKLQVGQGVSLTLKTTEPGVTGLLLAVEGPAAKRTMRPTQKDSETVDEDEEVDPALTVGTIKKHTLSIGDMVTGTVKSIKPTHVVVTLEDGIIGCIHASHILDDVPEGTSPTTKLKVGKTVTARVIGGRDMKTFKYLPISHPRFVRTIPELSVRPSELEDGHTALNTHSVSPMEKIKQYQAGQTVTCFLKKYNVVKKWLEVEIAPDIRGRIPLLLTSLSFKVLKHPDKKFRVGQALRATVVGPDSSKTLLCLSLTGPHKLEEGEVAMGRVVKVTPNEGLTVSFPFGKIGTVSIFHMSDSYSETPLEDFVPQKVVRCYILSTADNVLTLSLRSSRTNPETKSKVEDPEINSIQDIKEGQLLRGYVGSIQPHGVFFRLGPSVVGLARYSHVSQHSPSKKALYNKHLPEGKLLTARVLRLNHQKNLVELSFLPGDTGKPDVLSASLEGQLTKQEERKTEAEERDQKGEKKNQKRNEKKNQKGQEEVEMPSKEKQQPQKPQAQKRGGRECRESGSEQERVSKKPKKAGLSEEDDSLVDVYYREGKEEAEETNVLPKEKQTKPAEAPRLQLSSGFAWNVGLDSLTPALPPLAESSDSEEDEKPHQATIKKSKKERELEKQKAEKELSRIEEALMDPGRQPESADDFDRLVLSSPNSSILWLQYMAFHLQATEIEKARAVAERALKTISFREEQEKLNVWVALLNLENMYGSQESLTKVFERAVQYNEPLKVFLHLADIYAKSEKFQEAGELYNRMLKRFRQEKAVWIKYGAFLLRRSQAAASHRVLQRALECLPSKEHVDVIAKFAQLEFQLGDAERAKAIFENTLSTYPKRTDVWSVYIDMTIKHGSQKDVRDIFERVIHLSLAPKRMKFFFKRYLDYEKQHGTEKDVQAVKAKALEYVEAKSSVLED
T3 sequence (P55084 34-474): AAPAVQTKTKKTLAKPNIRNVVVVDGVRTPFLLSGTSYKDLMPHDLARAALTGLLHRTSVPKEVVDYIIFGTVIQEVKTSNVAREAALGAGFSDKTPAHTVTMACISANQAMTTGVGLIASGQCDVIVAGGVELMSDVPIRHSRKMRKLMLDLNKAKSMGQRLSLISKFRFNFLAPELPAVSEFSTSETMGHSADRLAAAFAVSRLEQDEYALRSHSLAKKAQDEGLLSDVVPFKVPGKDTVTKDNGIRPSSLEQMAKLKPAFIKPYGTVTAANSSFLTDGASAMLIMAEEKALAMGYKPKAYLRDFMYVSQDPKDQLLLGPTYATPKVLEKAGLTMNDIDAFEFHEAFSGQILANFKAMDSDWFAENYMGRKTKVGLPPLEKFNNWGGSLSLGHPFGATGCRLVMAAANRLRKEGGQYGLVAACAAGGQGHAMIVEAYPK
T3 sequence (P40939 37-763 partner): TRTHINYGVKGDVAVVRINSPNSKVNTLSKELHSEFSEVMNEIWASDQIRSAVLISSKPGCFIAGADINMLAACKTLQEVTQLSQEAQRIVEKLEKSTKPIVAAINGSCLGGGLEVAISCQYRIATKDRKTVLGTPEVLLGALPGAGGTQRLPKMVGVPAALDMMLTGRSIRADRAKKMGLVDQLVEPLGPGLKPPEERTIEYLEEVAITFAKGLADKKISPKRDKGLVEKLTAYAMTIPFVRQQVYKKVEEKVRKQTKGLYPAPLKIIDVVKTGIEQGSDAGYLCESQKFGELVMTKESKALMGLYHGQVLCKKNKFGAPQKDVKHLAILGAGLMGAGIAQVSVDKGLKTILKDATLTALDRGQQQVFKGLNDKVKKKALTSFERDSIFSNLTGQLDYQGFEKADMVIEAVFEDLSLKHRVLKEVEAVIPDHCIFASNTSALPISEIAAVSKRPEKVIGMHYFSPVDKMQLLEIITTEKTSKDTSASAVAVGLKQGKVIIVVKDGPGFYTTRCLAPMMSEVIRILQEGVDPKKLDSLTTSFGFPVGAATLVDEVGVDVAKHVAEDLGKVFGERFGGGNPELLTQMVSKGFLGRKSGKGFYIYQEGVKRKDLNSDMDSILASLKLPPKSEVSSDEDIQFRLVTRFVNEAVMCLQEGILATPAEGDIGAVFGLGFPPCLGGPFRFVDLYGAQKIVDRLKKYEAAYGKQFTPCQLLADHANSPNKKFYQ

Row | SMILES | Liganded [1] | Liganded ([2]; RNF7 Res# 88, uniprot Q9UBF6) | Liganded ([3]; HADHB Res# 458, uniprot P55084) | Liganded ([4]; PDCD11 Res# 361, uniprot Q14690) | KB03_100 uM_percent_inhibition ([1]; UniProt Q8N2W9, 100 uM) [%] | 100 Max ([1]; uniprot Q8N2W9) | 100 ave ([1]; uniprot Q8N2W9) | 500 Max ([1]; uniprot Q8N2W9) | 500 ave ([1]; uniprot Q8N2W9) | 100 Max ([2]; uniprot Q9UBF6) | 100 ave ([2]; uniprot Q9UBF6) | 100 Max ([3]; uniprot P55084) | 100 ave ([3]; uniprot P55084) | 500 Max ([3]; uniprot P55084) | 500 ave ([3]; uniprot P55084) | 100 Max ([4]; uniprot Q14690) | 100 ave ([4]; uniprot Q14690) | 500 ave ([4]; uniprot Q14690) | 500 Max ([4]; uniprot Q14690, in % (unit assumed))
1 | COc1ccc2c(c1)CCCN2C(=O)CCl [KB02] | YES | YES | YES | YES |  |  |  |  |  |  |  |  |  |  |  |  |  |  | 
2 | O=C(CCl)Nc1cc(C(F)(F)F)cc(C(F)(F)F)c1 [KBO3] | YES |  |  |  | 80 | 35.5 | 30.1 | 87.0 | 75.4 | 20.4 | 20.4 | 26.24 | 15.245 | 64.33 | 60.9 | 19.85 | 3.78 | 46.645 | 49.26
